Drawing on patent US10093683B2, “Factor XIa inhibitors” (Merck Sharp & Dohme Corp., priority 2014, dated 2018), this text covers Ki for 31 molecules.

Where two headings read alike, the source gives them in different places.

One experiment concerns the target Human plasma kallikrein (Homo sapiens (Human), UniProt P03952). Nature of the experiment: Kallikrein Assay. Type of experiment: biochemical. To be noted: purified Human plasma kallikrein 0.5 nM, Acetyl-K-P-R-AFC, pH 7.4; Ki from IC50 by Cheng Prusoff. The gist of the method: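 Purified human plasma kallikrein (0.5 nM final) with Acetyl-K-P-R-AFC substrate ([…]) in 50 mM HEPES pH 7.4, 150 mM NaCl, 5 mM CaCl2, 0.1% PEG 8000, after enzyme-inhibitor equilibration. Fluorescence (405 ex/510 em) under linear conditions; IC50 from four-parameter fit, converted to Ki by Cheng-Prusoff.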

In another experiment the target is human Factor XIa (Homo sapiens (Human), UniProt P03951). Description: Factor XIa Assay. Type of experiment: biochemical. To be noted: read-out: FXIa Ki. The gist of the method:
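Purified human FXIa (40 pM final) hydrolysing fluorogenic Z-Gly-Pro-Arg-AFC (100 μM) in 50 mM HEPES pH 7.4, 150 mM NaCl, 5 mM CaCl2, 0.1% PEG 8000, at room temperature or 37° C. Initial velocities measured after enzyme–inhibitor equilibration; Ki from Vo/Vi versus [I], assuming competitive inhibition.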

Setting [1] is: purified human Factor XIa 40 pM, Z-Gly-Pro-Arg-AFC 100 μM, pH 7.4.

human Factor XIa, sequence (P03951 388-625): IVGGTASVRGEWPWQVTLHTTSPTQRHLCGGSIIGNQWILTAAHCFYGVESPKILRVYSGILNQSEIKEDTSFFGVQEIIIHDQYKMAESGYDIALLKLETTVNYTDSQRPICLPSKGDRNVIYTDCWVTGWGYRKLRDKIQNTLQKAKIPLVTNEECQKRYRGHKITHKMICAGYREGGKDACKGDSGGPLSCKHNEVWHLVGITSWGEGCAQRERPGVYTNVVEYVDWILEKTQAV
human Factor XIa, sequence (P03951 19-387 partner): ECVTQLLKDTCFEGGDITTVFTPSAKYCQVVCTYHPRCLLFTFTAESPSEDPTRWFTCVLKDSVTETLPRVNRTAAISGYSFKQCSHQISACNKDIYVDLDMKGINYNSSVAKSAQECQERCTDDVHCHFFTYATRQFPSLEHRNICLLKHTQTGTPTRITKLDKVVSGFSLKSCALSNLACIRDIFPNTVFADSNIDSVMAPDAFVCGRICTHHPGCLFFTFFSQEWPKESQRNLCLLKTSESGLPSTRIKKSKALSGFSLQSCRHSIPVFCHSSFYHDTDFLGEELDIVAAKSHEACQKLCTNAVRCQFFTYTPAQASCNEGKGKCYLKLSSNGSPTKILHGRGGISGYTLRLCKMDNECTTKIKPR
Human plasma kallikrein, sequence (P03952 391-638): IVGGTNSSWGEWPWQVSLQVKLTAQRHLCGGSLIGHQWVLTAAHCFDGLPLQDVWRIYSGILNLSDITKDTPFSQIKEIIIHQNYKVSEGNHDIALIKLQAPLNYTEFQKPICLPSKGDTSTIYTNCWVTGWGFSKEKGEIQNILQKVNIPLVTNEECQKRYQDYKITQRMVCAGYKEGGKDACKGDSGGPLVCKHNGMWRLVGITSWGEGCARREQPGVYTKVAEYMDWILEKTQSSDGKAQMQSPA
Human plasma kallikrein, sequence (P03952 20-390 partner): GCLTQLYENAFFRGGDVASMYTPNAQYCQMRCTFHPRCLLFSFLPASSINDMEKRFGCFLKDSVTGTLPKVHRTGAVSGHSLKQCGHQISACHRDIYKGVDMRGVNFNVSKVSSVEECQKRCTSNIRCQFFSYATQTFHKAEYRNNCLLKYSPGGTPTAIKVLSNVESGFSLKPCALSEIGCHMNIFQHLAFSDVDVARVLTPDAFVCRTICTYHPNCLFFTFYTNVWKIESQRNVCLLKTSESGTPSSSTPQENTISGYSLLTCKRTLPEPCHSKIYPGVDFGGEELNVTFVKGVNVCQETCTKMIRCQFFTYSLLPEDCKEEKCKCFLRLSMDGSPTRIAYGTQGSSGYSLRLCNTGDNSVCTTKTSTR

By Ki is commonly meant a dissociation constant, usually derived from enzyme kinetics or from competition with a known ligand. Consider `COC(=O)Nc1ccc(C(=O)N[C@@H](CC(C)(C)OC)C(=O)N2CCC[C@@]3(C2)OC(=O)Nc2ccc(Cl)c(F)c23)cc1` [Example 119, methyl (4-(((2S)-1-(6-chloro-5-fluoro-2-oxo-1,2-dihydrospiro[benzo[d][1,3]oxazine-4,3′-piperidin]-1′-yl)-4-methoxy-4-methyl-1-oxopentan-2-yl)carbamoyl)phenyl)carbamate], for which the Ki is 4.92 nM at Human plasma kallikrein and 10.2 nM on human Factor XIa (setting [1]).
Take `O=C1Nc2ccc(Cl)c(F)c2[C@@]2(CCCN(C(=O)C(Cc3ccccc3)c3ncc(-c4ccc(C(=O)O)s4)[nH]3)C2)O1` (stereo partly drawn) [Example 123, 5-(2-(1-((R)-6-chloro-5-fluoro-2-oxo-1,2-dihydrospiro[benzo[d][1,3]oxazine-4,3′-piperidin]-1′-yl)-1-oxo-3-phenylpropan-2-yl)-1H-imidazol-5-yl)thiophene-2-carboxylic acid]: the Ki on Human plasma kallikrein is 4.65 nM; on human Factor XIa (setting [1]), 15.1 nM.
Regarding `COC(=O)Nc1cccc(C(=O)N[C@@H](Cc2ccccc2)C(=O)N2CCC3(C2)OC(=O)Nc2ccc(Cl)cc23)c1` (stereo partly drawn) [Example 143, methyl (3-(((2S)-1-(6-chloro-2-oxo-1,2-dihydrospiro[benzo[d][1,3]oxazine-4,3′-pyrrolidin]-1′-yl)-1-oxo-3-phenylpropan-2-yl)carbamoyl)phenyl)carbamate], the results for the Ki at Human plasma kallikrein and on human Factor XIa were 2.63 nM and 1250 nM, respectively.
`Cc1ncc(C(=O)N[C@@H](Cc2ccccc2)C(=O)N2CCC3(C2)OC(=O)Nc2ccc(Cl)cc23)cn1` (some centres unmarked) [Example 144]: the Ki at Human plasma kallikrein stood at 7.72 nM; at human Factor XIa, 5000 nM.
As to `COCCOC(=O)Nc1ccc(C(=O)N[C@@H](Cc2ccccc2)C(=O)N2CCC3(C2)OC(=O)Nc2ccc(Cl)cc23)cc1` (stereo partly drawn) [Example 164, 2-methoxyethyl (4-(((2S)-1-(6-chloro-2-oxo-1,2-dihydrospiro[benzo[d][1,3]oxazine-4,3′-pyrrolidin]-1′-yl)-1-oxo-3-phenylpropan-2-yl)carbamoyl)phenyl)carbamate], the values for the Ki on Human plasma kallikrein and on human Factor XIa were 36 nM and 9.4 nM, respectively.
For the molecule `O=C1CSc2cc(C(=O)N[C@@H](Cc3ccccc3)C(=O)N3CCC4(C3)OC(=O)Nc3ccc(Cl)cc34)ccc2N1` (some centres unmarked) [Example 165], the Ki on Human plasma kallikrein amounted to 27.5 nM; at human Factor XIa, 14.6 nM.
Take `O=C1COc2cc(C(=O)N[C@@H](Cc3ccccc3)C(=O)N3CCC4(C3)OC(=O)Nc3ccc(Cl)cc34)ccc2N1` (some centres unmarked) [Example 171]: the Ki on Human plasma kallikrein stood at 58 nM; on human Factor XIa, 21.8 nM.
The corresponding values for `Nc1nc2ccc(C(=O)N[C@@H](Cc3ccccc3)C(=O)N3CCC4(C3)OC(=O)Nc3ccc(Cl)cc34)cc2s1` (some centres unmarked) [Example 181] are 50.7 nM and 18.7 nM.
With `O=C1Nc2ccc(Cl)cc2C2(CCN(C(=O)[C@H](Cc3ccccc3)NC(=O)c3ccc(Nc4ncc[nH]4)cc3)C2)O1` (some centres unmarked) [Example 188], the Ki on Human plasma kallikrein was determined as 155 nM; at human Factor XIa, 42 nM.
The corresponding values for `CNC(=O)Nc1ccc(C(=O)N[C@@H](Cc2ccccc2)C(=O)N2CCC3(C2)OC(=O)Nc2ccc(Cl)cc23)cc1` (stereo partly drawn) [Example 189, N-((2S)-1-(6-chloro-2-oxo-1,2-dihydrospiro[benzo[d][1,3]oxazine-4,3′-pyrrolidin]-1′-yl)-1-oxo-3-phenylpropan-2-yl)-4-(3-methylureido)benzamide] are 51.3 nM and 17.6 nM.
As for `O=C(Nc1ccc(C(=O)N[C@@H](Cc2ccccc2)C(=O)N2CCC3(C2)OC(=O)Nc2ccc(Cl)cc23)cc1)OCCN1CCOCC1` (stereo partly drawn) [Example 191, 2-morpholinoethyl (4-(((2S)-1-(6-chloro-2-oxo-1,2-dihydrospiro[benzo[d][1,3]oxazine-4,3′-pyrrolidin]-1′-yl)-1-oxo-3-phenylpropan-2-yl)carbamoyl)phenyl)carbamate], the Ki amounted to 123 nM on Human plasma kallikrein and 33.5 nM at human Factor XIa.
For `O=C(Nc1ccc(C(=O)N[C@@H](Cc2ccccc2)C(=O)N2CCC3(C2)OC(=O)Nc2ccc(Cl)cc23)cc1)OC[C@@H]1CCCO1` (stereo partly drawn) [Example 194, ((S)-tetrahydrofuran-2-yl)methyl (4-(((2S)-1-(6-chloro-2-oxo-1,2-dihydrospiro[benzo[d][1,3]oxazine-4,3′-pyrrolidin]-1′-yl)-1-oxo-3-phenylpropan-2-yl)carbamoyl)phenyl)carbamate], the Ki was determined as 30.9 nM on Human plasma kallikrein and 5.48 nM on human Factor XIa.
The corresponding values for `Nc1n[nH]c2cc(C(=O)N[C@@H](Cc3ccccc3)C(=O)N3CC[C@@]4(C3)OC(=O)Nc3ccc(Cl)c(F)c34)ccc12` [Example 195] are 1.9 nM and 1 nM.
In the case of `Nc1n[nH]c2cc(C(=O)N[C@@H](Cc3ccccc3)C(=O)N3CCC[C@@]4(C3)OC(=O)Nc3ccc(Cl)cc34)ccc12` [Example 197], the results for the Ki at Human plasma kallikrein and on human Factor XIa were 1.3 nM and 0.62 nM, respectively.
For the molecule `O=C1Nc2ccc(Cl)cc2[C@@]2(CCN(C(=O)[C@H](Cc3ccccc3)NC(=O)c3ccc4[nH]c(=O)c(=O)[nH]c4c3)C2)O1` [Example 198], the Ki on Human plasma kallikrein turned out to be 30.1 nM; on human Factor XIa, 2.77 nM.
The corresponding values for `O=C1Nc2ccc(Cl)cc2[C@@]2(CCCN(C(=O)[C@H](Cc3ccccc3)NC(=O)c3ccc4[nH]c(=O)cc(O)c4c3)C2)O1` [Example 199] are 0.6 nM and 0.6 nM.
Regarding `Nc1n[nH]c2cc(C(=O)N[C@@H](CC3CC3)C(=O)N3CCC[C@@]4(C3)OC(=O)Nc3ccc(Cl)cc34)ccc12` [Example 200], the Ki at Human plasma kallikrein turned out to be 1 nM; at human Factor XIa it was 4.4 nM.
On to `O=C1Nc2ccc(Cl)cc2[C@@]2(CCCN(C(=O)[C@H](Cc3ccccc3)NC(=O)c3ccc(C(=O)O)s3)C2)O1` [Example 203], for which the Ki was 2.1 nM at Human plasma kallikrein and 10.3 nM at human Factor XIa.
On to `CNc1cc(C(=O)N[C@@H](Cc2ccccc2)C(=O)N2CCC[C@@]3(C2)OC(=O)Nc2ccc(Cl)cc23)ccn1` [Example 206], for which the Ki on Human plasma kallikrein was 1.7 nM; on human Factor XIa, 14.5 nM.
As to `Nc1ccc(C(=O)N[C@@H](Cc2ccc(F)cc2)C(=O)N2CCC[C@@]3(C2)OC(=O)Nc2ccc(Cl)cc23)cc1C(=O)O` [Example 208, 2-amino-5-(((S)-1-((R)-6-chloro-2-oxo-1,2-dihydrospiro[benzo[d][1,3]oxazine-4,3′-piperidin]-1′-yl)-3-(4-fluorophenyl)-1-oxopropan-2-yl)carbamoyl)benzoic acid], the Ki was 1.95 nM at Human plasma kallikrein and 1.63 nM at human Factor XIa.
Take `O=C1Nc2ccc(Cl)c(F)c2[C@@]2(CCCN(C(=O)[C@H](Cc3ccccc3)NC(=O)c3ccc4[nH]c(=O)cc(O)c4c3)C2)O1` [Example 209]: the results for the Ki on Human plasma kallikrein and at human Factor XIa were 0.33 nM and 0.11 nM, respectively.
Take `O=C1Nc2ccc(Cl)c(F)c2[C@@]2(CCCN(C(=O)[C@H](CC3CC3)NC(=O)c3ccc4[nH]c(=O)[nH]c4c3)C2)O1` [Example 213]: the Ki on Human plasma kallikrein amounted to 0.54 nM; on human Factor XIa, 10.4 nM.
The corresponding values for `O=C1Nc2ccc(Cl)c(F)c2[C@@]2(CCCN(C(=O)[C@H](CC3CC3)NC(=O)c3ccc4[nH]nc(O)c4c3)C2)O1` [Example 214] are 1.4 nM and 0.7 nM.
For the molecule `O=C1Nc2ccc(Cl)c(F)c2[C@@]2(CCCN(C(=O)[C@H](CC3CC3)NC(=O)c3ccc4c(O)n[nH]c4c3)C2)O1` [Example 215], the Ki worked out at 2.6 nM at Human plasma kallikrein and 13.8 nM at human Factor XIa.
The corresponding values for `O=C1Nc2ccc(Cl)c(F)c2[C@@]2(CCCN(C(=O)[C@H](CC3CC3)NC(=O)c3cc4cc(O)ccc4[nH]3)C2)O1` [Example 216] are 1.7 nM and 37.6 nM.
The corresponding values for `Nc1noc2cc(C(=O)N[C@@H](Cc3ccccc3)C(=O)N3CC[C@@]4(C3)OC(=O)Nc3ccc(Cl)cc34)ccc12` [Example 217] are 3.2 nM and 2.3 nM.
With `Nc1n[nH]c2cc(C(=O)N[C@@H](Cc3ccccc3)C(=O)N3CCCC4(C3)OC(=O)Nc3ccc(Cl)c(F)c34)ccc12` (some centres unmarked) [Example 225], the Ki amounted to 0.95 nM at Human plasma kallikrein and 0.4 nM at human Factor XIa.
Turning to `COC(=O)n1nc(N)c2ccc(C(=O)N[C@@H](Cc3ccccc3)C(=O)N3CC[C@@]4(C3)OC(=O)Nc3ccc(Cl)cc34)cc21` [Example 226, Methyl 3-amino-6-(((S)-1-((R)-6-chloro-2-oxo-1,2-dihydrospiro[benzo[d][1,3]oxazine-4,3′-pyrrolidin]-1′-yl)-1-oxo-3-phenylpropan-2-yl)carbamoyl)-1H-indazole-1-carboxylate], the figures for the Ki on Human plasma kallikrein and on human Factor XIa were 23.2 nM and 18.1 nM, respectively.
In the case of `COC(=O)Nc1n[nH]c2cc(C(=O)N[C@@H](Cc3ccccc3)C(=O)N3CC[C@@]4(C3)OC(=O)Nc3ccc(Cl)cc34)ccc12` [Example 227, methyl (6-(((S)-1-((R)-6-chloro-2-oxo-1,2-dihydrospiro[benzo[d][1,3]oxazine-4,3′-pyrrolidin]-1′-yl)-1-oxo-3-phenylpropan-2-yl)carbamoyl)-1H-indazol-3-yl)carbamate], the Ki on Human plasma kallikrein was 5 nM; at human Factor XIa, 9 nM.
The corresponding values for `O=C1Nc2ccc(Cl)cc2[C@@]2(CCN(C(=O)[C@H](Cc3ccccc3)NC(=O)c3ccc4[nH]c(=O)[nH]c(=O)c4c3)C2)O1` [Example 228] are 19.3 nM and 17.1 nM.
Turning to `COCC(=O)Nc1ccc(C(=O)N[C@@H](Cc2ccccc2)C(=O)N2CCC[C@@]3(C2)OC(=O)Nc2ccc(Cl)c(F)c23)cc1` [Example 230, N-((S)-1-((R)-6-chloro-5-fluoro-2-oxo-1,2-dihydrospiro[benzo[d][1,3]oxazine-4,3′-piperidin]-1′-yl)-1-oxo-3-phenylpropan-2-yl)-4-(2-methoxyacetamido)benzamide], the Ki was 2.72 nM on Human plasma kallikrein and 17.3 nM on human Factor XIa.
